The source of these data is publication PMC10960833, “1,2,3-triazole and chiral Schiff base hybrids as potential anticancer agents: DFT, molecular docking and ADME studies” (Scientific Reports, 2024).

For data set [1], the system named is PC3 (prostate) cancer cell lines. As to the kind of experiment: AlamarBlue cytotoxicity assay, PC3. The class given is cell-based. Particulars: for IC50: Homo sapiens, PC-3; for Selectivity index (SI) PC3: ratio IC50 MRC5 / IC50 PC3. The procedure: (§1) PC3, A375, and MRC5 cell lines were purchased from ATCC and were cultured in Dulbecco’s Modified Eagle Media (DMEM) supplemented with 10% Fetal Bovine Serum (FBS) (Highveld biological), 1% gentamycin and 1% penicillin/streptomycin (Sigma, USA).
(§2) The growth inhibitory effect and cytotoxicity of the compounds were tested in triplicate against two cancer cell lines (PC3 and A375) and one healthy cell line (MRC5), respectively using Alamar Blue assay.
(§3) PC3, A375, and MRC5 cell lines were cultured in 96 well tissue culture plates. […] Cells were treated for 24 h. […] Cell viability was measured using AlamarBlue and readings were obtained in terms of fluorescent values using a microplate reader (BioTek Synergy HT). Samples were exposed to an excitation wavelength of 530 nm and at the emission wavelength of 590 nm. Cell viability percentage was calculated using the formula below: Cellviability=absorbanceoftreatedcells-absorbanceofblank/absorbanceofuntreatedcells-absorbanceofblank×100%
For orientation: Alamar Blue is a resazurin reagent that responds to reducing activity.

For data set [2], the system named is A375 (skin) cancer cell lines. Kind of data set: AlamarBlue cytotoxicity assay, A375. The class given is cell-based. Conditions: for Cytotoxicity (IC50) A375 / IC50: A375 cells, 24 h treatment, AlamarBlue, mean ± SD of three independent experiments; for IC50 / viability at 5 µg/mL / viability at 15 µg/mL / viability at 25 µg/mL / viability at 50 µg/mL / viability at 75 µg/mL / viability at 100 µg/mL: Homo sapiens; for IC50: A-375, 24 h; for viability at 5 µg/mL / viability at 15 µg/mL / viability at 25 µg/mL / viability at 50 µg/mL / viability at 75 µg/mL / viability at 100 µg/mL: A-375; for Selectivity index (SI) A375: ratio IC50 MRC5 / IC50 A375. How it is done: as §1, §2, §3

Data set [3] is described as follows: AlamarBlue cytotoxicity assay, MRC5 normal cells. Particulars: human, MRC5 healthy lung cells, 24 h treatment, mean ± SD of three independent experiments. The class given is cell-based. The procedure: (§4) PC3, A375, and MRC5 cell lines were purchased from ATCC and were cultured in Dulbecco’s Modified Eagle Media (DMEM) supplemented with 10% Fetal Bovine Serum (FBS) (Highveld biological), 1% gentamycin and 1% penicillin/streptomycin (Sigma, USA). Cells were maintained at 37 °C under 5% of carbon dioxide (CO2) and 95% relative humidity.
as §2
(§5) PC3, A375, and MRC5 cell lines were cultured in 96 well tissue culture plates. […] Cells were treated for 24 h. 10 µl of AlamarBlue (Thermo Fisher Scientific) was added to each well at 22 h after treatment and incubated for 2 h at 37 °C in the dark since AlamarBlue is light sensitive. Cell viability was measured using AlamarBlue and readings were obtained in terms of fluorescent values using a microplate reader (BioTek Synergy HT). Samples were exposed to an excitation wavelength of 530 nm and at the emission wavelength of 590 nm. Cell viability percentage was calculated using the formula below: Cellviability=absorbanceoftreatedcells-absorbanceofblank/absorbanceofuntreatedcells-absorbanceofblank×100%

Data set [4] deals with MRC5 (healthy lung) cell lines. As to the kind of experiment: AlamarBlue cytotoxicity assay, MRC5 normal cells. The class given is cell-based. Particulars: 24 h treatment, mean ± SD of three independent experiments. The procedure: as §4, §2, §5
[5] abbreviates: PC3 cells, 24 h treatment, AlamarBlue, mean ± SD of three independent experiments.

In general, IC50 refers to the midpoint of a concentration-inhibition curve. By viability is commonly meant a read-out of living cells in per cent, often relative to untreated cells. In general, melting point refers to the temperature, or range, at which the solid turns liquid. Take `O=Cc1ccccc1OCc1cn(-c2ccccc2)nn1` [Compound 1, 2-((1-phenyl-1H-1,2,3-triazol-4-yl)methoxy)benzaldehyde]: the melting point was in the range of 147 to 149 °C. Moreover, in data set [1] (setting [5]), the IC50 was 75 ± 1.82 µg/mL. Moreover, the viability at 5 µg/mL in data set [1] (PC3, 5 µg/mL) was 95%. Moreover, the viability at 15 µg/mL in data set [1] (PC3, 15 µg/mL) was found to be 89%. Further, the viability at 25 µg/mL in data set [1] (PC3, 25 µg/mL) was 80%. For the same compound, in data set [1] (PC3, 50 µg/mL), the viability at 50 µg/mL stood at 63%. Also, the viability at 75 µg/mL in data set [1] (PC3, 75 µg/mL) stood at 47%. Also, the viability at 100 µg/mL in data set [1] (PC3, 100 µg/mL) was 38%. The “Selectivity index (SI) PC3” value in data set [1] came out at 1.02. For the same compound, in data set [2], the “Cytotoxicity (IC50) A375” value is on record as 40.37 ± 1.03 µg/mL, the concentration for half-maximal inhibition (IC50) lay within 36.1 to 40.4 µg/mL and the “Selectivity index (SI) A375” value is on record as 1.90. In data set [2] (A375, 5 µg/mL), the viability at 5 µg/mL is 79%. In addition, in data set [2] (A375, 15 µg/mL), the viability at 15 µg/mL was found to be 69%. In data set [2] (A375, 25 µg/mL), the viability at 25 µg/mL came out at 55%. Besides, the viability at 50 µg/mL in data set [2] (A375, 50 µg/mL) was found to be 37%. For the same compound, in data set [2] (A375, 75 µg/mL), the viability at 75 µg/mL was determined as 24%. For the same compound, in data set [2] (A375, 100 µg/mL), the viability at 100 µg/mL amounted to 18%. The IC50 at 24 h in data set [3] stood at 76.9 ± 1.87 µg/mL.

For `O=C(O)CCC(/N=C/c1ccccc1OCc1cn(-c2ccccc2)nn1)C(=O)O` (stereo in doubt) [Compound 2, (s,e)-2-((2-((1-phenyl-1H-1,2,3-triazol-yl)methoxy)benzylidene)amino)pentanedioic acid], the melting point lay in the range of 146 to 148 °C. In data set [1] (setting [5]), the IC50 came to 60.6 ± 1.42 µg/mL. In data set [1], the “Activity for the proliferation of the PC3 cancer cell lines (in words)” value is on record as “moderate activity” and the “Selectivity index (SI) PC3” value was 1.41. The viability at 5 µg/mL in data set [1] (PC3, 5 µg/mL) was found to be 90.3%. In addition, in data set [1] (PC3, 15 µg/mL), the viability at 15 µg/mL is 81%. In addition, the viability at 25 µg/mL in data set [1] (PC3, 25 µg/mL) was 71%. For the same compound, the viability at 50 µg/mL in data set [1] (PC3, 50 µg/mL) was 56%. The viability at 75 µg/mL in data set [1] (PC3, 75 µg/mL) is 36%. The viability at 100 µg/mL in data set [1] (PC3, 100 µg/mL) was 28%. For the same compound, in data set [2], the “Cytotoxicity (IC50) A375” value is listed as 36.12 ± 0.87 µg/mL, the IC50 was in the range of 36.1 to 40.4 µg/mL and the “Selectivity index (SI) A375” value is reported as 2.36. Besides, the viability at 5 µg/mL in data set [2] (A375, 5 µg/mL) amounted to 75.7%. Further, the viability at 15 µg/mL in data set [2] (A375, 15 µg/mL) came to 67%. In addition, in data set [2] (A375, 25 µg/mL), the viability at 25 µg/mL turned out to be 53.3%. Besides, in data set [2] (A375, 50 µg/mL), the viability at 50 µg/mL turned out to be 34%. In addition, the viability at 75 µg/mL in data set [2] (A375, 75 µg/mL) was 20.7%. In addition, the viability at 100 µg/mL in data set [2] (A375, 100 µg/mL) worked out at 14%. For the same compound, the IC50 at 24 h in data set [3] stood at 85.3 ± 2.27 µg/mL.

`O=C([O-])[C@H](Cc1c[nH]c2ccccc12)/N=C/c1ccccc1OCc1cn(-c2ccccc2)nn1.[Na+]` [Compound 3, sodium (s,e)-3-(1H-indol-3-yl)-2-((2-((1-phenyl-1H-1,2,3-triazol-4-yl)methoxy)benzylidene)amino)propanoate]: the melting point fell in the range of 196 to 198 °C. The IC50 in data set [1] (setting [5]) was determined as 40.5 ± 1.06 µg/mL. Further, the viability at 5 µg/mL in data set [1] (PC3, 5 µg/mL) stood at 77%. Moreover, the viability at 15 µg/mL in data set [1] (PC3, 15 µg/mL) was found to be 65.3%. Moreover, the viability at 25 µg/mL in data set [1] (PC3, 25 µg/mL) worked out at 58%. The viability at 50 µg/mL in data set [1] (PC3, 50 µg/mL) is 44%. Moreover, the viability at 75 µg/mL in data set [1] (PC3, 75 µg/mL) is 22%. Besides, the viability at 100 µg/mL in data set [1] (PC3, 100 µg/mL) came to 16%. For the same compound, the “Selectivity index (SI) PC3” value in data set [1] is listed as 2.13. For the same compound, in data set [2], the IC50 was 21.9 ± 0.52 µg/mL and the “Selectivity index (SI) A375” value was 3.95. The viability at 5 µg/mL in data set [2] (A375, 5 µg/mL) is 68%. The viability at 15 µg/mL in data set [2] (A375, 15 µg/mL) came to 57.7%. Besides, the viability at 25 µg/mL in data set [2] (A375, 25 µg/mL) worked out at 42%. The viability at 50 µg/mL in data set [2] (A375, 50 µg/mL) worked out at 23%. The viability at 75 µg/mL in data set [2] (A375, 75 µg/mL) came out at 14%. In addition, the viability at 100 µg/mL in data set [2] (A375, 100 µg/mL) was 9%. The 50% inhibitory concentration (IC50) at 24 h in data set [3] was 86.4 ± 2.64 µg/mL.

The compound `O=C([O-])[C@H](Cc1ccc([O-])cc1)/N=C/c1ccccc1OCc1cn(-c2ccccc2)nn1.[Na+].[Na+]` [Compound 4, sodium (s,e)-3-(4-oxidophenyl)-2-((2-((1-phenyl-1H-1,2,3-triazol-4-yl)methoxy)benzylidene)amino)propanoate] showed a melting point of 148 to 150 °C. In addition, the 50% inhibitory concentration (IC50) in data set [1] (setting [5]) worked out at 55.7 ± 1.28 µg/mL. Besides, in data set [1], the “Activity for the proliferation of the PC3 cancer cell lines (in words)” value is “moderate activity” and the “Selectivity index (SI) PC3” value is reported as 1.59. The viability at 5 µg/mL in data set [1] (PC3, 5 µg/mL) turned out to be 84%. Besides, the viability at 15 µg/mL in data set [1] (PC3, 15 µg/mL) is 78%. For the same compound, the viability at 25 µg/mL in data set [1] (PC3, 25 µg/mL) came out at 70%. In addition, the viability at 50 µg/mL in data set [1] (PC3, 50 µg/mL) was 56%. Moreover, the viability at 75 µg/mL in data set [1] (PC3, 75 µg/mL) stood at 34%. The viability at 100 µg/mL in data set [1] (PC3, 100 µg/mL) came to 21.3%. In addition, in data set [2], the 50% inhibitory concentration (IC50) was determined as 24.8 ± 0.61 µg/mL and the “Selectivity index (SI) A375” value was determined as 3.56. Moreover, the viability at 5 µg/mL in data set [2] (A375, 5 µg/mL) stood at 68.7%. Moreover, in data set [2] (A375, 15 µg/mL), the viability at 15 µg/mL stood at 59.7%. Also, in data set [2] (A375, 25 µg/mL), the viability at 25 µg/mL worked out at 45%. Also, the viability at 50 µg/mL in data set [2] (A375, 50 µg/mL) worked out at 25%. Moreover, the viability at 75 µg/mL in data set [2] (A375, 75 µg/mL) was 16%. In addition, in data set [2] (A375, 100 µg/mL), the viability at 100 µg/mL stood at 11%. Besides, the IC50 at 24 h in data set [3] was determined as 88.4 ± 2.38 µg/mL.

With `O=C(O)C(Cc1ccccc1)/N=C/c1ccccc1OCc1cn(-c2ccccc2)nn1` (stereo not drawn) [Compound 6, (e)-3-phenyl-2-((2-((1-phenyl-1H-1,2,3-triazol-4-yl)methoxy)benzylidene)amino)propanoic acid], the “Cell viability (%)” value came to 79% in data set [1] (PC3, 5 µg/mL); 68% in data set [1] (PC3, 15 µg/mL); 60% in data set [1] (PC3, 25 µg/mL); 49% in data set [1] (PC3, 50 µg/mL); 26% in data set [1] (PC3, 75 µg/mL); 18% in data set [1] (PC3, 100 µg/mL). In addition, the “Cell viability (%)” value was 68% in data set [2] (A375, 5 µg/mL); 57.67% in data set [2] (A375, 15 µg/mL); 45% in data set [2] (A375, 25 µg/mL); 27% in data set [2] (A375, 50 µg/mL); 16% in data set [2] (A375, 75 µg/mL); 8% in data set [2] (A375, 100 µg/mL). For the same compound, the “Cytotoxicity (IC50) PC3” value in data set [1] (setting [5]) is given as 45.00 ± 1.12 µg/mL. Moreover, in data set [1], the “Selectivity index (SI) PC3” value amounted to 2.07. Besides, the “Cytotoxicity (IC50) A375” value in data set [2] is 24.18 ± 0.57 µg/mL. Further, the “Selectivity index (SI) A375” value in data set [2] came to 3.85. For the same compound, the “Cytotoxicity (IC50) MRC5” value in data set [4] worked out at 93.07 ± 2.42 µg/mL.
